This note sets out measurements from patent US20110305707A1, “COMPOSITIONS AND METHODS FOR TREATING CANCER” (THE CLEVELAND CLINIC FOUNDATION, priority 2010, published 2011).

Series [1] has as its system malignant melanoma. Put plainly: Malignant melanoma animal model, apoA1 given as therapy after tumor growth is established. It counts as in vivo, mice. As to the method: In another part of this Example, the impact of giving apoA1 as a therapy is evaluated after the tumor growth is established and metastases are detectable. The same malignant melanoma animal model is employed. ApoA1 injections were started one week after tumor injection. […] In the insets for both 16A and 16B, note that apoA1 injections actually shrink peak tumor volume by ˜50% within 1-2 weeks of therapy. A similar ˜50% reduction in peak metastases burden is also noted in the apoA1 treated mice.
In similar experiments, ApoA2 was given in the same dosing strategy as apoA1 vs normal saline (S) control.

Series [2] can be described thus: Plasma levels of apoA1 after subcutaneous apoA1 injection every other day. It counts as in vivo, mice. The conditions noted are these: apoA1 s.c. every other day, steady state, days 22-24. As to the method:
In another part of this Example, apoA1 was injected subcutaneously into mice every other day and the plasma levels of apoA1 at steady state (shown in FIG. 9 for says 22-24) were monitored. […] This approximates the plasma levels of apoA1 in humans.

Series [3] deals with F10L_B16 Melanoma Tumor cells. Put plainly: F10L_B16 melanoma in apoA1-KO mice given human ApoA1 or saline throughout the study (xenogen imaging, survival). It counts as in vivo. The conditions noted are these: vs normal saline. As to the method: In another part of this Example, human ApoA1 or normal saline (control) was given to apoA1-KO mice throughout duration of the study following the dosing schedule of 15 mg s.c. QOD. 10^5 F10L_B16 Melanoma Tumor cells were injected subcutaneously into the dorsum of the mice. Total tumor burden and metastases were quantified by xenogen imaging. […] Images of the mice 16 days post tumor injection are shown in FIG. 11, which show much greater tumor growth in the saline treated mice. Images of the mice 21 days post tumor injection are shown in FIG. 12, which show much greater tumor growth in the saline treated mice.

[4] abbreviates: ApoA1 injections started one week after tumor injection.
Setting [5] is: ApoA2 given in the same dosing strategy, vs normal saline.
[6] abbreviates: 15 mg s.c. QOD throughout study.

Take apolipoprotein A-1 [ApoA1]: in series [1] (setting [4]), the metastases formation result is given as “dramatically reduced” and the overall tumor growth result is on record as “dramatically reduced”. In series [1] (setting [5]), the “potency at reducing cancer growth compared with ApoA2” value was “markedly more potent” and the “potency at reducing metastases formation compared with ApoA2” value is recorded as “markedly more potent”. Also, the “reduction in peak metastases burden” value in series [1] (injections started one week after tumor injection) is given as about 50%. The “shrinkage of peak tumor volume” value in series [1] (injections started one week after tumor injection, within 1-2 weeks of therapy) is about 50%. For the same substance, the “plasma level of apoA1” value in series [2] lay in the range of 75 to 175 mg/dL. In series [3] (setting [6]), the “metastases formation (xenogen imaging)” value was “blocks tumor growth and metastases formation”; the “tumor growth (total tumor burden, xenogen imaging)” value was “blocks tumor growth”. Besides, the survival result in series [3] (15 mg s.c. QOD) is given as “much greater survival”.
